Molecular target: GLP-1 Receptor (Homo sapiens (Human), UniProt P43220)
Assay: GLP-1R agonist cAMP stimulation assay (HEK293/GLP1R/CRE-LUC cells)
Type: cell-based
Conditions: 30 min incubation, read-out: GLP1R cAMP Stimulation DR: EC50
Method: Activation of GLP-1 receptor is known to stimulate cyclic AMP (cAMP) production in cells which indicates primary coupling to the Gαs subunit of the G protein heterotrimeric complex.
To optimize functional activity directed toward Gαs coupling, a HEK293/CRELuc cell line developed by HDB stably expressing the GLP-1 Receptor was used. 200× concentration of compound working solutions were prepared (Agilent Technologies Bravo) with 1/2 log serial dilution in 384-well Echo LDV plate (Labcyte, Cat #LP-0200). 50 nL/well 200× concentration of compound working solutions were moved to 384-well white low volume plate (Greiner, Cat #784075) using Labcyte ECHO550. 1×10^5 cells/mL HEK293/GLP1R/CRE-LUC (HD Biosciences) cell suspensions prepared with assay buffer [DPBS containing 0.5 mM IBMX (Sigma,Cat #I5879) and 0.1% BSA (GENVIEW, Cat #FA016-100 g)], 10 uL cell suspensions were added to each well of previous generated assay plate which already contains 50 nl compound at 200× concentration using ThermoFisher Multidrop Combi (1000cells/well). Seal the plate and incubate at 37° C. with 5% CO2 for 30 min.
After incubation the CAMP assay signal was generated using cAMP dynamic 2 Kit (Cisbio). 5 μL cAMP-d2 working solution was added to each well, followed with 5 μL Anti-cAMP antibody-cryptate working solution added to each well using ThermoFisher Multidrop Combi. Incubate at room temperature for 1 hour protected from light. Read the fluorescence at 665 and 615 nm with Reader PerkinElmer En Vision.

GLP-1 Receptor, sequence (P43220 24-463): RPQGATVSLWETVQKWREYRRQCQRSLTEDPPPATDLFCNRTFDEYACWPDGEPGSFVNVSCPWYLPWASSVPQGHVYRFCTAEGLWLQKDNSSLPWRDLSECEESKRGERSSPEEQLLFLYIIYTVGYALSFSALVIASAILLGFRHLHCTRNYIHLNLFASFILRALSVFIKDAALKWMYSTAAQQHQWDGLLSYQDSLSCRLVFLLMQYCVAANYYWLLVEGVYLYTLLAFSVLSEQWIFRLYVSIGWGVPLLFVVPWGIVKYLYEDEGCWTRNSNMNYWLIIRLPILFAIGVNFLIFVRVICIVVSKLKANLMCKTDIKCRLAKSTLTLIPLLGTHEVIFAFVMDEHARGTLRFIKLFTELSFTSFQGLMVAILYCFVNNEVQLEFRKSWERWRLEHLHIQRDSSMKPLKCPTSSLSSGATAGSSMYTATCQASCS

Structure (SMILES): N#Cc1ccc([C@@H]2COc3c(cccc3C3CCN(Cc4nc5ccc(C(=O)O)cc5n4C[C@@H]4CCO4)CC3)O2)cc1 [Compound 129a, 2-((4-((R)-2-(4-Cyanophenyl)-2,3-dihydrobenzo[b][1,4]dioxin-5-yl)piperidin-1-yl)methyl)-1-(((S)-oxetan-2-yl)methyl)-1H-benzo[d]imidazole-6-carboxylic acid]
- EC50: ≤ 0.0002 µM

Structure (SMILES): Cc1ccc(C2COc3c(cccc3C3CCN(Cc4nc5ccc(C(=O)O)nc5n4C[C@@H]4CCO4)CC3)O2)cc1 (stereo partly drawn) [Compound 116a, 3-(((S)-oxetan-2-yl)methyl)-2-((4-(2-(p-tolyl)-2,3-dihydrobenzo[b][1,4]dioxin-5-yl)piperidin-1-yl)methyl)-3H-imidazo[4,5-b]pyridine-5-carboxylic acid]
- EC50: ≤ 0.0002 µM

Structure (SMILES): N#Cc1ccc([C@H]2COc3c(cccc3C3CCN(Cc4nc5ccc(C(=O)O)nc5n4C[C@@H]4CCO4)CC3)O2)cc1 [Compound 118c, 2-((4-((S)-2-(4-cyanophenyl)-2,3-dihydrobenzo[b][1,4]dioxin-5-yl)piperidin-1-yl)methyl)-3-(((S)-oxetan-2-yl)methyl)-3H-imidazo[4,5-b]pyridine-5-carboxylic acid]
- EC50: 0.02 to 0.2 µM

Structure (SMILES): O=C(O)c1ccc2nc(CN3CCC(c4cccc5c4CCN(c4ccc(Cl)cc4)C5)CC3)n(C[C@@H]3CCO3)c2n1 [Compound 126a]
- EC50: > 0.2 µM

Structure (SMILES): O=C(O)c1ccc2nc(CN3CCC(c4cccc5c4OCC(c4ccc(Cl)cc4F)C5)CC3)n(C[C@@H]3CCO3)c2n1 (stereo partly drawn) [Compound 106a, 2-((4-(3-(4-chloro-2-fluorophenyl)chroman-8-yl)piperidin-1-yl)methyl)-3-(((S)-oxetan-2-yl)methyl)-3H-imidazo[4,5-b]pyridine-5-carboxylic acid]
- EC50: 0.0002 to 0.02 µM

Structure (SMILES): O=C(O)c1ccc2nc(CN3CCC(c4cccc5c4OCC(c4ccc(Cl)cc4)O5)CC3)n(C[C@@H]3CCO3)c2c1 (stereo partly drawn) [Compound 115a, 2-((4-(2-(4-chlorophenyl)-2,3-dihydrobenzo[b][1,4]dioxin-5-yl)piperidin-1-yl)methyl)-1-(((S)-oxetan-2-yl)methyl)-1H-benzo[d]imidazole-6-carboxylic acid]
- EC50: ≤ 0.0002 µM

Structure (SMILES): O=C(O)c1ccc2nc(CN3CCC(c4cccc5c4OCC(c4ccc(Cl)c(F)c4)O5)CC3)n(C[C@@H]3CCO3)c2n1 (stereo partly drawn) [Compound 113a, 2-((4-(2-(4-chloro-3-fluorophenyl)-2,3-dihydrobenzo[b][1,4]dioxin-5-yl)piperidin-1-yl)methyl)-3-(((S)-oxetan-2-yl)methyl)-3H-imidazo[4,5-b]pyridine-5-carboxylic acid]
- EC50: 0.0002 to 0.02 µM

Structure (SMILES): O=C(O)c1ccc2nc(CN3CCC(c4cccc5c4OC(c4ccc(Cl)cc4F)CO5)CC3)n(C[C@@H]3CCO3)c2n1 (single isomer, unassigned) [Compound 130b]
- EC50: ≤ 0.0002 µM

Structure (SMILES): O=C(O)c1ccc2nc(CN3CCC(c4cccc5c4OCC(c4cccc(Cl)c4)O5)CC3)n(C[C@@H]3CCO3)c2n1 (stereo partly drawn) [Compound 112a, 2-((4-(2-(3-chlorophenyl)-2,3-dihydrobenzo[b][1,4]dioxin-5-yl)piperidin-1-yl)methyl)-3-(((S)-oxetan-2-yl)methyl)-3H-imidazo[4,5-b]pyridine-5-carboxylic acid]
- EC50: 0.0002 to 0.02 µM

Structure (SMILES): O=C(O)c1ccc2nc(CN3CCN(c4cccc5c4OCC(c4ccc(Cl)cc4F)O5)CC3)n(C[C@@H]3CCO3)c2n1 (stereo partly drawn) [Compound 108a, 2-((4-(2-(4-chloro-2-fluorophenyl)-2,3-dihydrobenzo[b][1,4]dioxin-5-yl)piperazin-1-yl)methyl)-3-((S)-oxetan-2-ylmethyl)-3H-imidazo[4,5-b]pyridine-5-carboxylic acid]
- EC50: 0.0002 to 0.02 µM

Structure (SMILES): O=C(O)c1ccc2nc(CN3CCC(c4cccc5c4OC[C@H](c4ccc(Cl)cc4)O5)CC3)n(C[C@@H]3CCO3)c2n1 [Compound 111c, 2-((4-((S)-2-(4-chlorophenyl)-2,3-dihydrobenzo[b][1,4]dioxin-5-yl)piperidin-1-yl)methyl)-3-(((S)-oxetan-2-yl)methyl)-3H-imidazo[4,5-b]pyridine-5-carboxylic acid]
- EC50: 0.02 to 0.2 µM

Structure (SMILES): O=C(O)c1ccc2nc(CN3CCC(c4cccc5c4OCC(c4ccccc4F)O5)CC3)n(C[C@@H]3CCO3)c2n1 (stereo partly drawn) [Compound 109a, 2-((4-(2-(2-fluorophenyl)-2,3-dihydrobenzo[b][1,4]dioxin-5-yl)piperidin-1-yl)methyl)-3-(((S)-oxetan-2-yl)methyl)-3H-imidazo[4,5-b]pyridine-5-carboxylic acid]
- EC50: 0.02 to 0.2 µM

Structure (SMILES): O=C(O)c1ccc2nc(CN3CCC(c4cccc5c4OC(c4ccc(Cl)cc4F)CO5)CC3)n(C[C@@H]3CCO3)c2n1 (single isomer, unassigned) [Compound 130c]
- EC50: 0.0002 to 0.02 µM

Structure (SMILES): CC1(c2ccc(Cl)cc2)COc2c(cccc2C2CCN(Cc3nc4ccc(C(=O)O)nc4n3C[C@@H]3CCO3)CC2)O1 (stereo partly drawn) [Compound 128a, 2-((4-(2-(4-chlorophenyl)-2-methyl-2,3-dihydrobenzo[b][1,4]dioxin-5-yl)piperidin-1-yl)methyl)-3-((S)-oxetan-2-ylmethyl)-3H-imidazo[4,5-b]pyridine-5-carboxylic acid]
- EC50: 0.0002 to 0.02 µM

Structure (SMILES): O=C(O)c1ccc2nc(CN3CCC(c4cccc5c4OCC(c4ccccc4)O5)CC3)n(C[C@@H]3CCO3)c2n1 (stereo partly drawn) [Compound 101a, 3-((S)-oxetan-2-ylmethyl)-2-((4-(2-phenyl-2,3-dihydrobenzo[b][1,4]dioxin-5-yl)piperidin-1-yl)methyl)-3H-imidazo[4,5-b]pyridine-5-carboxylic acid]
- EC50: 0.0002 to 0.02 µM

Structure (SMILES): O=C(O)c1ccc2nc(CN3CCC(c4cccc5c4OC[C@@H](c4ccc(Cl)cc4F)O5)CC3)n(C[C@@H]3CCO3)c2c1 [Compound 120b, 2-((4-((R)-2-(4-chloro-2-fluorophenyl)-2,3-dihydrobenzo[b][1,4]dioxin-5-yl)piperidin-1-yl)methyl)-1-((S)-oxetan-2-ylmethyl)-1H-benzo[d]imidazole-6-carboxylic acid]
- EC50: 0.0002 to 0.02 µM

Structure (SMILES): O=C(O)c1ccc2nc(CN3CCN(c4cccc5c4OCC(c4ccc(Cl)cc4F)C5)CC3)n(C[C@@H]3CCO3)c2n1 (stereo partly drawn) [Compound 121a, 2-((4-(3-(4-Chloro-2-fluorophenyl)chroman-8-yl)piperazin-1-yl)methyl)-3-(((S)oxetan-2-yl)methyl)-3H-imidazo[4,5-b]pyridine-5-carboxylic acid]
- EC50: 0.02 to 0.2 µM

Structure (SMILES): O=C(O)c1ccc2nc(CN3CCC(c4cccc5c4OC(c4ccc(Cl)cc4F)CO5)CC3)n(C[C@@H]3CCO3)c2n1 (stereo partly drawn) [Compound 130a, 2-((4-(3-(4-chloro-2-fluorophenyl)-2,3-dihydrobenzo[b][1,4]dioxin-5-yl)piperidin-1-yl)methyl)-3-(((S)-oxetan-2-yl)methyl)-3H-imidazo[4,5-b]pyridine-5-carboxylic acid]
- EC50: ≤ 0.0002 µM

Structure (SMILES): O=C(O)c1ccc2nc(Cc3ccc(-c4cccc5c4OCC(c4ccc(Cl)cc4F)O5)cc3)n(C[C@@H]3CCO3)c2n1 (stereo in doubt) [Compound 107a, 2-[[4-[2-(4-chloro-2-fluoro-phenyl)-2,3-dihydro-1,4-benzodioxin-5-yl]phenyl]methyl]-3-(oxetan-2-ylmethyl)imidazo[4,5-b]pyridine-5-carboxylic acid]
- EC50: 0.02 to 0.2 µM

Structure (SMILES): N#Cc1ccc([C@@H]2COc3c(cccc3C3CCN(Cc4nc5ccc(C(=O)O)nc5n4C[C@@H]4CCO4)CC3)O2)cc1 [Compound 118b, 2-((4-((R)-2-(4-cyanophenyl)-2,3-dihydrobenzo[b][1,4]dioxin-5-yl)piperidin-1-yl)methyl)-3-(((S)-oxetan-2-yl)methyl)-3H-imidazo[4,5-b]pyridine-5-carboxylic acid]
- EC50: ≤ 0.0002 µM

Structure (SMILES): O=C(O)c1ccc2nc(CN3CCC(c4cccc5c4OCC(c4ccc(C(F)(F)F)cc4)O5)CC3)n(C[C@@H]3CCO3)c2n1 (stereo partly drawn) [Compound 119a, 2-((4-(2-(4-(trifluoromethyl)phenyl)-2,3-dihydrobenzo[b][1,4]dioxin-5-yl)piperidin-1-yl)methyl)-3-(((S)-oxetan-2-yl)methyl)-3H-imidazo[4,5-b]pyridine-5-carboxylic acid]
- EC50: ≤ 0.0002 µM

Structure (SMILES): O=C(O)c1ccc2nc(CN3CCC(c4cccc5c4OC[C@@H](c4ccc(Cl)cc4)O5)CC3)n(C[C@@H]3CCO3)c2n1 [Compound 111b, 2-((4-((R)-2-(4-chlorophenyl)-2,3-dihydrobenzo[b][1,4]dioxin-5-yl)piperidin-1-yl)methyl)-3-((S)-oxetan-2-ylmethyl)-3H-imidazo[4,5-b]pyridine-5-carboxylic acid]
- EC50: ≤ 0.0002 µM

Structure (SMILES): O=C(O)c1ccc2nc(CN3CCC(c4cccc5c4OC[C@H](c4ccc(Cl)cc4F)O5)CC3)n(C[C@@H]3CCO3)c2n1 [Compound 104c, 2-((4-((S)-2-(4-chloro-2-fluorophenyl)-2,3-dihydrobenzo[b][1,4]dioxin-5-yl)piperidin-1-yl)methyl)-3-(((S)-oxetan-2-yl)methyl)-3H-imidazo[4,5-b]pyridine-5-carboxylic acid]
- EC50: 0.02 to 0.2 µM

Structure (SMILES): O=C(O)c1ccc2nc(CN3CCC(c4cccc5c4CCC(c4ccc(Cl)cc4F)O5)CC3)n(C[C@@H]3CCO3)c2n1 (stereo partly drawn) [Compound 105a, 2-((4-(2-(4-chloro-2-fluorophenyl)chroman-5-yl)piperidin-1-yl)methyl)-3-(((S)oxetan-2-yl)methyl)-3H-imidazo[4,5-b]pyridine-5-carboxylic acid]
- EC50: > 0.2 µM

— patent US20250214999A1, “HETEROCYCLIC GLP-1 AGONISTS” (Gasherbrum Bio, Inc., priority 2020, published 2025)
